The values below come from ChEMBL document CHEMBL5038591, “Identification of a Novel TAR RNA-Binding Protein 2 Modulator with Potential Therapeutic Activity against Hepatocellular Carcinoma” (J Med Chem, 2021).

In test [1] the test system is SK-HEP1. Nature of the test: Effect on human SK-HEP1 cells assessed as decrease in miR-224-5p level at 10 to 50 uM by qRT-PCR analysis. As to conditions: dose 10-50 µM. The class given is functional, cell-based. On the technique in general: In qPCR the cycle at which signal appears reflects the starting amount.
The target in test [2] is T1, Inhibitor of nuclear factor kappa-B kinase subunit beta (Homo sapiens) (UniProt O14920).
T1 sequence (whole entry): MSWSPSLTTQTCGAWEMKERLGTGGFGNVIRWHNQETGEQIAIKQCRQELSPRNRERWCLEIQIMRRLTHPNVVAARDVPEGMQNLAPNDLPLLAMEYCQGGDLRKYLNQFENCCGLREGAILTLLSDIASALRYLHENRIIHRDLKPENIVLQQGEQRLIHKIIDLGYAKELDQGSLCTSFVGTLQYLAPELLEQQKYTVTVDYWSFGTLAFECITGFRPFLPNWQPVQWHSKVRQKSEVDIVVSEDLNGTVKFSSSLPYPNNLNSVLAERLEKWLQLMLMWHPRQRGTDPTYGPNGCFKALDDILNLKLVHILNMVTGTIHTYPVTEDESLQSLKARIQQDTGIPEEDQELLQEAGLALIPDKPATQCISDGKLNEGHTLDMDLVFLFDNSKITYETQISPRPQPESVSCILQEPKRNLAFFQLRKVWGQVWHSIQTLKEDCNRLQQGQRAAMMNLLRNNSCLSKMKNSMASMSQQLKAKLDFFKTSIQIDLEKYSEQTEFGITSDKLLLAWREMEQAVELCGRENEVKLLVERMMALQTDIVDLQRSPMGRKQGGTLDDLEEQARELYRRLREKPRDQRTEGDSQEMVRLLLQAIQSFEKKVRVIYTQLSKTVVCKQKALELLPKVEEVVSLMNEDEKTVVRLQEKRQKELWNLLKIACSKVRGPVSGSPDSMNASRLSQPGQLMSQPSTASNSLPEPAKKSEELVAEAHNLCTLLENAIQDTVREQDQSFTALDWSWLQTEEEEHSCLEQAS
Nature of the test: Inhibition of IkappaB phosphorylation in human SK-HEP1 cells at 30 uM by Western blot analysis. The class given is cell-based. (In general: Immunoblotting shows a protein as a band on a membrane.)

Test [3] has as its system SK-HEP1. Nature of the test: Inhibition of epithelial-mesenchymal transition in human SK-HEP1 cells assessed as change in E-cadherin expression at 10 to 50 uM incubated for 24 hrs by Western blot analysis. As to conditions: dose 10-50 µM. The test is classed as functional, cell-based.
Test [4] deals with SK-HEP1. Nature of the test: Inhibition of cell invasion in human SK-HEP1 cells at 30 uM incubated for 12 hrs by crystal violet staining based transwell assay. The class given is functional.
For the next test, the system named is MHCC97. Nature of the test: Antitumor activity against human MHCC97 cells xenografted in SCID mouse assessed as decrease in tumor size at 40 mg/kg, ip administered once every 3 days and measured after 10 days. The test is classed as functional, organism-based. Particulars: time 10.0 day. Background: A xenograft is tissue or cells of one species grown in another, often human tumour cells in immunodeficient mice.

Active and inactive are the calls of the source. No cut-off for these calls is given here.

With `COc1cc2c(c(O)c1OC)-c1c(cc3c(c1OC)OCO3)C[C@H](C)[C@H](C)C2`, the result with SK-HEP1 [1] and with MHCC97 was Active. The inhibition entry (in test [2]; with SK-HEP1 [4]) was “Active” throughout. For the same compound, the inhibition result in the test on SK-HEP1 [3] is “inactive”.
